In general, EC50 refers to the concentration at which the effect is half-maximal. Lower therefore signals higher potency in that assay.

Activity calls are given as the source filed them. How the calls were made is not given here.

These results are taken from PubChem BioAssay AID742 (SRMLSC, 2007).

A short description of experiment [1]: Her2 expression suppression with viability readout – cell-based, AlphaScreen, CellTiter-Glo viability, dose response (AID 742). The settings on record: human cells, Her2 expression AlphaScreen; CTG viability; at 9.62 µM (top of the series). Background: Bead proximity is the source of the signal in Alpha formats.
The subject of experiment [2] is human cells, Her2 expression AlphaScreen; CTG viability. Described as above. The settings on record: viability, CellTiter-Glo.

As for `CCOc1ccccc1NC(=O)Cn1nnc(-c2ccc(OCC)c(OCC)c2)n1`, the Her2 inhibition in experiment [1] is -13.9% (inactive). Moreover, in experiment [2], the half-maximal effective concentration (EC50) is more than 9.62 µM.
On the same counts, the results for `O=C1C(C2=C(O)c3ccccc3C2=O)=Nc2ccccc21` are -1.36% (inactive) and less than 0.024 µM.
In the same order, the values of `O=C(Oc1ccc2c(c1)OCO2)c1cc2c(s1)CCC2` are 41.1% (inactive) and more than 9.62 µM.
Regarding `CCOC(=O)C1C(c2ccccc2Cl)NC(=O)N(C)C1(O)C(F)(F)F` (centres undefined), the Her2 inhibition in experiment [1] was -10.7% (inactive). Besides, the EC50 in experiment [2] was more than 9.62 µM.
In the same order, the values of `N#Cc1c(N)sc(=S)c2c1CCN(Cc1ccccc1)C2` are -20.9% (inactive) and more than 9.62 µM.
Consider `Cc1onc(-c2ccccc2)c1C(=O)n1nnc2ccccc21`, for which the Her2 inhibition in experiment [1] was -24.8% (inactive). The compound also showed an EC50 in experiment [2] of more than 9.62 µM.
In the case of `N#C/C(C(N)=O)=c1/ccc2c(c1)N1C3=C(CCCC3)CC3CCCCC31N=2` (centres undefined), the Her2 inhibition in experiment [1] is 4.75% (inactive). In addition, the EC50 in experiment [2] is more than 9.62 µM.
On to `CCOC(=O)CC1=C(C(=O)OCC)C(c2ccc(OC)cc2OC)C(C#N)=C(N)O1` (centres undefined), for which the Her2 inhibition in experiment [1] is -27.6% (inactive). Also, in experiment [2], the half-maximal effective concentration (EC50) was more than 9.62 µM.
As to `CCN1C(=O)CC(C(=O)Nc2ccc(F)cc2)SC1=Nc1ccc2c(c1)OCO2` (centres undefined), the Her2 inhibition in experiment [1] is -33.1% (inactive). In experiment [2], this compound registered an EC50 of more than 9.62 µM.
In the same order, the values of `COCCCN1C(=O)C(O)=C(C(C)=O)C1c1cccc(F)c1` (centres undefined) are -2.16% (inactive) and more than 9.62 µM.
For `C#CCOC(=O)c1ccccc1C(=O)OCC#C`, the Her2 inhibition in experiment [1] is -22.6% (inactive). This compound had a half-maximal effective concentration (EC50) in experiment [2] of more than 9.62 µM.
On to `N=C(N)c1c(O)n(C2CCCCC2)c(=O)n(C2CCCCC2)c1=O`, for which the Her2 inhibition in experiment [1] is -21.5% (inactive). In experiment [2], the EC50 is more than 9.62 µM.
Turning to `O=C(CSc1oc(-c2ccccc2)nc1S(=O)(=O)c1ccc(F)cc1)NCC1CCCO1` (centres undefined), in experiment [1], the Her2 inhibition is 11.4% (inactive). This compound also yielded an EC50 in experiment [2] of more than 9.62 µM.
In the same order, the values of `c1ccc(CNC2=NCCC2)nc1` are -3.59% (inactive) and more than 9.62 µM.
As to `CCCc1[nH]nc2c1C(c1ccc(OC)c(Cn3nc(C)c(Br)c3C)c1)C(C#N)=C(N)O2` (centres undefined), the Her2 inhibition in experiment [1] is -0.44% (inactive). This compound gave an EC50 in experiment [2] of more than 9.62 µM.
Take `CC(C)c1nnc(NC(=O)CCS(=O)(=O)c2nc(-c3cccs3)cc(C(F)(F)F)n2)s1`: the Her2 inhibition in experiment [1] was 16.2% (inactive). Besides, in experiment [2], the EC50 was more than 9.62 µM.
On to `O=S1(=O)Nc2c(ccc3cccnc23)-c2ccccc21`, for which the Her2 inhibition in experiment [1] is 12.6% (inactive). This compound came in with an EC50 in experiment [2] of more than 9.62 µM.
Take `Cc1ccc2nc(Nc3ccccc3)c(/C=N/O)c(=O)n2c1`: in experiment [1], the Her2 inhibition is -10.3% (inactive). The compound also came in with an EC50 in experiment [2] of more than 9.62 µM.
In the case of `CCOC(=O)C(C(C)=O)c1c(Br)c(O)c(O)c2c(C(=O)c3ccc(C)cc3)coc12` (centres undefined), the Her2 inhibition in experiment [1] was 46.1% (inactive). For the same compound, in experiment [2], the EC50 was more than 9.62 µM.
As to `Cc1ccc(S(=O)(=O)N2CCC(C(=O)N[C@@H](C)C(=O)NCCc3ccccc3)CC2)cc1`, the Her2 inhibition in experiment [1] was -5.1% (inactive). The same compound showed an EC50 in experiment [2] of more than 9.62 µM.
Consider `CCCCC(CC)Cn1c2nc3ccccc3nc2c2c(=N)oc(C)nc21` (centres undefined), for which the Her2 inhibition in experiment [1] is -5.07% (inactive). The EC50 in experiment [2] is more than 9.62 µM.
On the same counts, the results for `CCOC(=O)CSc1nnc(-c2ccc(NS(=O)(=O)c3ccc(C)cc3)cc2)o1` are 7.81% (inactive) and more than 9.62 µM.
In the case of `COC(=O)Nc1ccc(S(=O)(=O)N(CCO)CC(F)(F)C(F)F)cc1`, in experiment [1], the Her2 inhibition was -11.6% (inactive). Moreover, the EC50 in experiment [2] was more than 9.62 µM.
For `COCc1cc(C)nc(Nc2ccc(C)c(C)c2)c1C#N`, the Her2 inhibition in experiment [1] was 20.5% (inactive). The EC50 in experiment [2] was more than 9.62 µM.
Take `CC(=O)Nc1cc(OC(C)=O)c2nonc2c1OC(C)=O`: the Her2 inhibition in experiment [1] is 22.3% (inactive). In addition, the EC50 in experiment [2] was more than 9.62 µM.
Turning to `CCn1c(C)cc(=S)c2ccccc21`, in experiment [1], the Her2 inhibition was -25.6% (inactive). In addition, the EC50 in experiment [2] was more than 9.62 µM.
`COc1ccc(Cl)c(Cn2c(NCc3ccco3)nc3c2c(=O)n(C)c(=O)n3C)c1`: the Her2 inhibition in experiment [1] is 0.72% (inactive). In experiment [2], this compound yielded an EC50 of more than 9.62 µM.
As to `CCc1ccc(-c2nc(CN3CCC(C(=O)N4CCN(c5ccccc5)CC4)CC3)c(C)o2)cc1`, the Her2 inhibition in experiment [1] is -74% (inactive). This compound also came in with an EC50 in experiment [2] of more than 9.62 µM.
For `CN1/C(=C/C(=O)c2nc(S(C)(=O)=O)ncc2Cl)C(C)(C)c2ccccc21`, the Her2 inhibition in experiment [1] was 23.3% (inactive). Further, in experiment [2], the EC50 was more than 9.62 µM.
`O=C(NCCCc1ccccc1)c1ccncc1`: the Her2 inhibition in experiment [1] was -8.4% (inactive). Also, in experiment [2], the EC50 is more than 9.62 µM.
In the same order, the values of `Cn1nc(C(=O)Nc2c(-c3ccccc3)nc3sccn23)c2ccccc2c1=O` are -13.2% (inactive) and more than 9.62 µM.
With `O=C1C2=C(SCCS2)C(=O)N1CCCO`, the Her2 inhibition in experiment [1] is -25% (inactive). In experiment [2], this compound had a 50% effective concentration (EC50) of more than 9.62 µM.
